Experimental data taken from PMC6009956, “Design, synthesis and biological activity of N^4-phenylsubstituted-7H-pyrrolo[2,3-d]pyrimidin-4-amines as dual inhibitors of aurora kinase A and epidermal growth factor receptor kinase” (Journal of Enzyme Inhibition and Medicinal Chemistry, 2017).
Where two headings read alike, the source gives them in different places. One block for each molecule: values may come before it.

Columns and labels:
EGFR = EGFR (Homo sapiens, UniProt P00533); assay: ADP-Glo kinase assay, EGFR; type: biochemical; design: purchased BPS Bioscience (assay run externally by the vendor)
Sequence of EGFR (P00533 25-1210): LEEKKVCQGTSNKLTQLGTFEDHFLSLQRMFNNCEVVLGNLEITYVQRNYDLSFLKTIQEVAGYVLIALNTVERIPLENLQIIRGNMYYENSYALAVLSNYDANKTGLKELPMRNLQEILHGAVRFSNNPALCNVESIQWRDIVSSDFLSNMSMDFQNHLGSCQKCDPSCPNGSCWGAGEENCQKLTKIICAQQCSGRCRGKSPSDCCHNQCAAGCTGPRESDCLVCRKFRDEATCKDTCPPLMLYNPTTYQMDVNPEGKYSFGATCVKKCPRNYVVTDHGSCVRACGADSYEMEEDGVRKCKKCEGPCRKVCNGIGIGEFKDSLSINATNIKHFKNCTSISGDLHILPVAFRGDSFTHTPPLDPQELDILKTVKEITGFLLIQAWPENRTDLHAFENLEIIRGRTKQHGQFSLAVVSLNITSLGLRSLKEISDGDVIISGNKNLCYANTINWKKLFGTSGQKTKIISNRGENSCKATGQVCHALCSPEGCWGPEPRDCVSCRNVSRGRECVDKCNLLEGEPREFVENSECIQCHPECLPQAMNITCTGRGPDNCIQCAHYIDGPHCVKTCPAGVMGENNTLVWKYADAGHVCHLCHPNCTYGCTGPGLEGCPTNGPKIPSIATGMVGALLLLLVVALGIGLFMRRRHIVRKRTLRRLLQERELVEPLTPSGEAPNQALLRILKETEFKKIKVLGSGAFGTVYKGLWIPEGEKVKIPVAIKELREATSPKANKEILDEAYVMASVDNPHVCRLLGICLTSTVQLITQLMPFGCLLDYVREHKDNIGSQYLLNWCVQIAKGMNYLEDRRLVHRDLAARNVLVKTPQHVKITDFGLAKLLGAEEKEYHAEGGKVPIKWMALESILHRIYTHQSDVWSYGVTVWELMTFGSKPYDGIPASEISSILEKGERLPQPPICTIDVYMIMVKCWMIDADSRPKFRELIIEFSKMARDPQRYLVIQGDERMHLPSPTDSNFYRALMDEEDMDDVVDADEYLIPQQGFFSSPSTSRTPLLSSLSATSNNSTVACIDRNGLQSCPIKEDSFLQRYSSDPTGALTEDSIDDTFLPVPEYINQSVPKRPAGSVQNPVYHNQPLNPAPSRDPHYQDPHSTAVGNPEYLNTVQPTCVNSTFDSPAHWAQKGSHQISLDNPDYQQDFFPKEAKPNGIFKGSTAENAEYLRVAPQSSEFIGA

aurora A kinase (AURKA) = molecular target: T1, aurora A kinase (AURKA) (Homo sapiens, UniProt O14965); assay: ADP-Glo kinase assay, Aurora A; type: biochemical
T1 construct: purchased BPS Bioscience (assay run externally by the vendor)
T1 sequence (O14965 1-403): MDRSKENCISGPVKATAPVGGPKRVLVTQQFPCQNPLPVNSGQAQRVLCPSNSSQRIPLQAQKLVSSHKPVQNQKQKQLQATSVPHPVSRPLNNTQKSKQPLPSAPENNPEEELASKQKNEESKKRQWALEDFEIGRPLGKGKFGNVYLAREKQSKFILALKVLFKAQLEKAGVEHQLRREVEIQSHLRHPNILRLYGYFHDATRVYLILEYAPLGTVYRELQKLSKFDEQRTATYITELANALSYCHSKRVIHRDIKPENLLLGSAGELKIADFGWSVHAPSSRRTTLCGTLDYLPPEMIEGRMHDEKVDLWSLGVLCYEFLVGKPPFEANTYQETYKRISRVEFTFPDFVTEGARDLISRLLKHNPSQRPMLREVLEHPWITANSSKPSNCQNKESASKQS

[1] = 10 µM ATP, triplicate, read-out: EGFR IC50 ± SD
[2] = 10 µM ATP/0.2 mg/ml Poly-Glu-Tyr, read-out: EGFR IC50 (dose-response curve, supplement)
[3] = 10 µM ATP, triplicate, read-out: AURKA IC50 ± SD
[4] = 10 µM ATP/0.2 mg/ml Kemptide, read-out: Aurora A IC50 (dose-response curve, supplement)

- IC50 (EGFR; [1]): 1.23 ± 0.201 µM
- IC50 (EGFR; [2]): 1.2 µM
- EGFR % Activity Set1 (EGFR; Log[nM] 0): 97%
- EGFR % Activity Set2 (EGFR; Log[nM] 0): 98%
- EGFR % Activity Set3 (EGFR; Log[nM] 0): 121%
- EGFR % Activity Set1 (EGFR; Log[nM] 1.0): 109%
- EGFR % Activity Set2 (EGFR; Log[nM] 1.0): 101%
- EGFR % Activity Set3 (EGFR; Log[nM] 1.0): 128%
- EGFR % Activity Set1 (EGFR; Log[nM] 1.5): 113%
- EGFR % Activity Set2 (EGFR; Log[nM] 1.5): 108%
- EGFR % Activity Set3 (EGFR; Log[nM] 1.5): 122%
- EGFR % Activity Set1 (EGFR; Log[nM] 2.0): 111%
- EGFR % Activity Set2 (EGFR; Log[nM] 2.0): 102%
- EGFR % Activity Set3 (EGFR; Log[nM] 2.0): 99%
- EGFR % Activity Set1 (EGFR; Log[nM] 2.5): 77%
- EGFR % Activity Set2 (EGFR; Log[nM] 2.5): 82%
- EGFR % Activity Set3 (EGFR; Log[nM] 2.5): 84%
- EGFR % Activity Set1 (EGFR; Log[nM] 3.0): 55%
- EGFR % Activity Set2 (EGFR; Log[nM] 3.0): 59%
- EGFR % Activity Set3 (EGFR; Log[nM] 3.0): 52%
- EGFR % Activity Set1 (EGFR; Log[nM] 3.5): 20%
- EGFR % Activity Set2 (EGFR; Log[nM] 3.5): 24%
- EGFR % Activity Set3 (EGFR; Log[nM] 3.5): 23%
- EGFR % Activity Set1 (EGFR; Log[nM] 4.0): 12%
- EGFR % Activity Set2 (EGFR; Log[nM] 4.0): 12%
- EGFR % Activity Set3 (EGFR; Log[nM] 4.0): 10%
- EGFR % Activity Set1 (EGFR; Log[nM] 4.5): 4%
- EGFR % Activity Set2 (EGFR; Log[nM] 4.5): 5%
- EGFR % Activity Set3 (EGFR; Log[nM] 4.5): 4%
- EGFR % Activity Set1 (EGFR; Log[nM] 5.0): 4%
- EGFR % Activity Set2 (EGFR; Log[nM] 5.0): 3%
- EGFR % Activity Set3 (EGFR; Log[nM] 5.0): 3%
- IC50 (aurora A kinase (AURKA); [3]): 8.56 ± 1.74 µM
- IC50 (aurora A kinase (AURKA); [4]): 8.5 µM
- Aurora A % Activity Set1 (aurora A kinase (AURKA); Log[nM] 0): 95%
- Aurora A % Activity Set2 (aurora A kinase (AURKA); Log[nM] 0): 97%
- Aurora A % Activity Set3 (aurora A kinase (AURKA); Log[nM] 0): 102%
- Aurora A % Activity Set1 (aurora A kinase (AURKA); Log[nM] 1.0): 102%
- Aurora A % Activity Set2 (aurora A kinase (AURKA); Log[nM] 1.0): 103%
- Aurora A % Activity Set3 (aurora A kinase (AURKA); Log[nM] 1.0): 102%
- Aurora A % Activity Set1 (aurora A kinase (AURKA); Log[nM] 1.5): 105%
- Aurora A % Activity Set2 (aurora A kinase (AURKA); Log[nM] 1.5): 105%
- Aurora A % Activity Set3 (aurora A kinase (AURKA); Log[nM] 1.5): 107%
- Aurora A % Activity Set1 (aurora A kinase (AURKA); Log[nM] 2.0): 98%
- Aurora A % Activity Set2 (aurora A kinase (AURKA); Log[nM] 2.0): 107%
- Aurora A % Activity Set3 (aurora A kinase (AURKA); Log[nM] 2.0): 109%
- Aurora A % Activity Set1 (aurora A kinase (AURKA); Log[nM] 2.5): 103%
- Aurora A % Activity Set2 (aurora A kinase (AURKA); Log[nM] 2.5): 103%
- Aurora A % Activity Set3 (aurora A kinase (AURKA); Log[nM] 2.5): 107%
- Aurora A % Activity Set1 (aurora A kinase (AURKA); Log[nM] 3.0): 92%
- Aurora A % Activity Set2 (aurora A kinase (AURKA); Log[nM] 3.0): 102%
- Aurora A % Activity Set3 (aurora A kinase (AURKA); Log[nM] 3.0): 98%
- Aurora A % Activity Set1 (aurora A kinase (AURKA); Log[nM] 3.5): 66%
- Aurora A % Activity Set2 (aurora A kinase (AURKA); Log[nM] 3.5): 73%
- Aurora A % Activity Set3 (aurora A kinase (AURKA); Log[nM] 3.5): 70%
- Aurora A % Activity Set1 (aurora A kinase (AURKA); Log[nM] 4.0): 44%
- Aurora A % Activity Set2 (aurora A kinase (AURKA); Log[nM] 4.0): 48%
- Aurora A % Activity Set3 (aurora A kinase (AURKA); Log[nM] 4.0): 48%
- Aurora A % Activity Set1 (aurora A kinase (AURKA); Log[nM] 4.5): 18%
- Aurora A % Activity Set2 (aurora A kinase (AURKA); Log[nM] 4.5): 18%
- Aurora A % Activity Set3 (aurora A kinase (AURKA); Log[nM] 4.5): 19%
- Aurora A % Activity Set1 (aurora A kinase (AURKA); Log[nM] 5.0): 11%
- Aurora A % Activity Set2 (aurora A kinase (AURKA); Log[nM] 5.0): 11%
- Aurora A % Activity Set3 (aurora A kinase (AURKA); Log[nM] 5.0): 11%
Structure (SMILES): Cc1ccccc1Nc1ncnc2[nH]ccc12 [Compound 15, N^4-(2-methylphenyl)-7H-pyrrolo[2,3-d]pyrimidin-4-amine]

- IC50 (EGFR; [1]): 0.111 ± 0.0151 µM
- IC50 (EGFR; [2]): 0.11 µM
- EGFR % Activity Set1 (EGFR; Log[nM] 0): 93%
- EGFR % Activity Set2 (EGFR; Log[nM] 0): 101%
- EGFR % Activity Set3 (EGFR; Log[nM] 0): 99%
- EGFR % Activity Set1 (EGFR; Log[nM] 1.0): 90%
- EGFR % Activity Set2 (EGFR; Log[nM] 1.0): 91%
- EGFR % Activity Set3 (EGFR; Log[nM] 1.0): 97%
- EGFR % Activity Set1 (EGFR; Log[nM] 1.5): 72%
- EGFR % Activity Set2 (EGFR; Log[nM] 1.5): 77%
- EGFR % Activity Set3 (EGFR; Log[nM] 1.5): 83%
- EGFR % Activity Set1 (EGFR; Log[nM] 2.0): 49%
- EGFR % Activity Set2 (EGFR; Log[nM] 2.0): 51%
- EGFR % Activity Set3 (EGFR; Log[nM] 2.0): 55%
- EGFR % Activity Set1 (EGFR; Log[nM] 2.5): 24%
- EGFR % Activity Set2 (EGFR; Log[nM] 2.5): 23%
- EGFR % Activity Set3 (EGFR; Log[nM] 2.5): 29%
- EGFR % Activity Set1 (EGFR; Log[nM] 3.0): 11%
- EGFR % Activity Set2 (EGFR; Log[nM] 3.0): 10%
- EGFR % Activity Set3 (EGFR; Log[nM] 3.0): 12%
- EGFR % Activity Set1 (EGFR; Log[nM] 3.5): 5%
- EGFR % Activity Set2 (EGFR; Log[nM] 3.5): 5%
- EGFR % Activity Set3 (EGFR; Log[nM] 3.5): 5%
- EGFR % Activity Set1 (EGFR; Log[nM] 4.0): 4%
- EGFR % Activity Set2 (EGFR; Log[nM] 4.0): 4%
- EGFR % Activity Set3 (EGFR; Log[nM] 4.0): 5%
- EGFR % Activity Set1 (EGFR; Log[nM] 4.5): 5%
- EGFR % Activity Set2 (EGFR; Log[nM] 4.5): 5%
- EGFR % Activity Set3 (EGFR; Log[nM] 4.5): 5%
- EGFR % Activity Set1 (EGFR; Log[nM] 5.0): 4%
- EGFR % Activity Set2 (EGFR; Log[nM] 5.0): 4%
- EGFR % Activity Set3 (EGFR; Log[nM] 5.0): 4%
- IC50 (aurora A kinase (AURKA); [3]): 13.3 ± 3.57 µM
- IC50 (aurora A kinase (AURKA); [4]): 12.9 µM
- Aurora A % Activity Set1 (aurora A kinase (AURKA); Log[nM] 0): 100%
- Aurora A % Activity Set2 (aurora A kinase (AURKA); Log[nM] 0): 94%
- Aurora A % Activity Set3 (aurora A kinase (AURKA); Log[nM] 0): 93%
- Aurora A % Activity Set1 (aurora A kinase (AURKA); Log[nM] 1.0): 97%
- Aurora A % Activity Set2 (aurora A kinase (AURKA); Log[nM] 1.0): 97%
- Aurora A % Activity Set3 (aurora A kinase (AURKA); Log[nM] 1.0): 97%
- Aurora A % Activity Set1 (aurora A kinase (AURKA); Log[nM] 1.5): 103%
- Aurora A % Activity Set2 (aurora A kinase (AURKA); Log[nM] 1.5): 99%
- Aurora A % Activity Set3 (aurora A kinase (AURKA); Log[nM] 1.5): 106%
- Aurora A % Activity Set1 (aurora A kinase (AURKA); Log[nM] 2.0): 97%
- Aurora A % Activity Set2 (aurora A kinase (AURKA); Log[nM] 2.0): 100%
- Aurora A % Activity Set3 (aurora A kinase (AURKA); Log[nM] 2.0): 98%
- Aurora A % Activity Set1 (aurora A kinase (AURKA); Log[nM] 2.5): 102%
- Aurora A % Activity Set2 (aurora A kinase (AURKA); Log[nM] 2.5): 96%
- Aurora A % Activity Set3 (aurora A kinase (AURKA); Log[nM] 2.5): 95%
- Aurora A % Activity Set1 (aurora A kinase (AURKA); Log[nM] 3.0): 77%
- Aurora A % Activity Set2 (aurora A kinase (AURKA); Log[nM] 3.0): 81%
- Aurora A % Activity Set3 (aurora A kinase (AURKA); Log[nM] 3.0): 79%
- Aurora A % Activity Set1 (aurora A kinase (AURKA); Log[nM] 3.5): 65%
- Aurora A % Activity Set2 (aurora A kinase (AURKA); Log[nM] 3.5): 63%
- Aurora A % Activity Set3 (aurora A kinase (AURKA); Log[nM] 3.5): 63%
- Aurora A % Activity Set1 (aurora A kinase (AURKA); Log[nM] 4.0): 46%
- Aurora A % Activity Set2 (aurora A kinase (AURKA); Log[nM] 4.0): 42%
- Aurora A % Activity Set3 (aurora A kinase (AURKA); Log[nM] 4.0): 44%
- Aurora A % Activity Set1 (aurora A kinase (AURKA); Log[nM] 4.5): 41%
- Aurora A % Activity Set2 (aurora A kinase (AURKA); Log[nM] 4.5): 39%
- Aurora A % Activity Set3 (aurora A kinase (AURKA); Log[nM] 4.5): 39%
- Aurora A % Activity Set1 (aurora A kinase (AURKA); Log[nM] 5.0): 34%
- Aurora A % Activity Set2 (aurora A kinase (AURKA); Log[nM] 5.0): 34%
- Aurora A % Activity Set3 (aurora A kinase (AURKA); Log[nM] 5.0): 32%
Structure (SMILES): c1ccc(Oc2ccc(Nc3ncnc4[nH]ccc34)cc2)cc1 [Compound 17, N^4-(4-phenoxyphenyl)-7H-pyrrolo[2,3-d]pyrimidin-4-amine]
